Like-named read-outs stand apart in the source and are kept apart here.

What all share (format): biochemical, HCV genotype 1b
In assay [1] the target is HCV NS3 protease (UniProt P26663). On the set-up: rows headed: IC50 (μM); IC50 (μM).
Assay [2] has the same target. Conditions: read-out: activity / potency (HCV NS3 protease inhibition); text comparison of P1 configuration. As for the experimental part: (§1) Recombinant HCV NS3 Protease/NS4A Cofactor Peptide Radiometric Assay
(§2) The enzyme was cloned, expressed and prepared according to the protocol described in Example 36. The enzyme was stored at −80° C., thawed on ice and diluted just prior to use in the assay buffer containing the NS4A cofactor peptide.
(§3) The substrate used for the NS3 protease/NS4A cofactor peptide radiometric assay, DDIVPC-SMSYTW, is cleaved between the cysteine and the serine residues by the enzyme. The sequence DDIVPC-SMSYTW corresponds to the NS5A/NS5B natural cleavage site in which the cysteine residue in P2 has been substituted for a proline. […] (molar ratio enzyme:cofactor 1:100) in the absence or presence of inhibitors. The separation of substrate from products is performed by adding avidin-coated agarose beads to the assay mixture followed by filtration. […]
(§4) The NS2-NS5B-3′ non coding region was cloned by RT-PCR into the pCR®3 vector (Invitrogen) using RNA extracted from the serum of an HCV genotype 1b infected individual (provided by Dr. Bernard Willems, Hôpital St-Luc, Montréal, Québec, Canada). […] Fluorescence of the N-terminal product was monitored on a Perkin-Elmer LS-50B fluorometer equipped with a 96-well plate reader (excitation wavelength: 325 nm; emission wavelength: 423 nm). […]

The target is the same in assay [3]. On the set-up: rows headed: difference in potency between (1R,2S) compound and its (1S,2S) isomer; other: 801 vs. corresponding (1S,2S) isomer. Conditions: 801 vs. corresponding (1S,2S) isomer. As for the experimental part:
as §1, §2, §3, §4

Sequence of HCV NS3 protease (P26663 1027-1206, other chains not shown): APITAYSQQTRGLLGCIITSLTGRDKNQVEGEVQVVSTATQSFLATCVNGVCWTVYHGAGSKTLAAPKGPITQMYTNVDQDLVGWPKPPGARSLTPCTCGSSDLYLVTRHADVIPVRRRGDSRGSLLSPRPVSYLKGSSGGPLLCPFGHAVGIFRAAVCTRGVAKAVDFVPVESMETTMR

In the case of `C=CC1CC1(NC(=O)C1CC(Oc2cc(-c3ccccc3)nc3cc(OC)ccc23)CN1C(=O)C(NC(=O)NC(C)(C)C)C(C)(C)C)C(=O)O` (centres unmarked) [compound 801], the IC50 against HCV NS3 protease [1] (Table 8) and on HCV NS3 protease [2] was 6 nM each time. Also, on HCV NS3 protease [3], the “difference in potency between (1R,2S) compound and its (1S,2S) isomer” value is listed as “over 1500 fold”.

Consider `C=CC1CC1(NC(=O)C1CC(Oc2cc(-c3ccccc3)nc3cc(OC)ccc23)CN1C(=O)C(NC(=O)OC(C)(C)C)C(C)(C)C)C(=O)O` (centres unmarked) [compound 901], for which the IC50 on HCV NS3 protease [1] (Table 9) and at HCV NS3 protease [2] was 25 nM in each case.

These data come from patent US6534523B1, “Hepatitis C inhibitor tri-peptides” (Boehringer Ingelheim (Canada) Ltd., priority 1998, dated 2003).
